Patent EP2982680B1, “PROTAMINE PEPTIDOMIMETIC, AND PHARMACEUTICALLY ACCEPTABLE SALTS AND USE THEREOF” (Academy of Military Medical Sciences, priority 2013, dated 2014)
Where a SMILES comes first, the peptide text is derived from it. Where no end group is shown, it is not given here.

Tests used:
[1] = Water solubility of synthesized peptides
[2] = amino acid; cited from earlier work
heparin = assay: Antagonism of protamine-like peptides against heparin anticoagulation in vitro (heparin neutralization, rabbit whole blood clotting); design: species or system New Zealand rabbits; conditions: for Amount of neutralized heparin (U/mg) Mean ± SD: average from five tests; for Amount of neutralized heparin (U/mg) Mean ± SD / Clotting time / Amount of neutralized heparin (U/mg) 1 / Amount of neutralized heparin (U/mg) 2 / Amount of neutralized heparin (U/mg) 3 / Amount of neutralized heparin (U/mg) 4 / Amount of neutralized heparin (U/mg) 5: rabbit whole blood added with heparin; for I (Anti-heparin index): concentration of polypeptide/1 unit of heparin, lower index = better antagonism; for Clotting time: 37 °C, blank control 10.62±0.49; for Amount of neutralized heparin (U/mg) 1: repeat 1 of 5; for Amount of neutralized heparin (U/mg) 1 / Amount of neutralized heparin (U/mg) 2 / Amount of neutralized heparin (U/mg) 3 / Amount of neutralized heparin (U/mg) 4 / Amount of neutralized heparin (U/mg) 5: test sample 1 mg per mL; for Amount of neutralized heparin (U/mg) 2: repeat 2 of 5; for Amount of neutralized heparin (U/mg) 3: repeat 3 of 5; for Amount of neutralized heparin (U/mg) 4: repeat 4 of 5; for Amount of neutralized heparin (U/mg) 5: repeat 5 of 5
Text: Reference standard of heparin was exactly weighed and then dissolved into several solutions with different concentrations by adding 0.9% sodium chloride solution according to the marked potency. The increment of heparin units per mL between two solutions having adjacent concentrations should be similar with no more than five units.
The test sample was the protamine-like peptide. If the test sample was in a powder form, it was accurately weighed on the basis of dry sample. Then, a solution of 0.9% sodium chloride was added thereto to provide a solution containing 1 mg of test sample per mL.
Eight small dry clean teat tubes with the same diameter (0.8 × 3.8 cm) were picked. Tube 1 and Tube 8 were used as the blank control into which 0.2 mL of 0.9% sodium chloride solution was added. Tube 2 to Tube 7 were used as the ones with test samples into each of which 0.1 ml of test solution was added together with 0.1 ml of heparin standard dilution having one concentration mentioned above. The mixture was well mixed immediately. An appropriate amount (0.8 ml) of whole blood freshly drawn from rabbits was added into these eight test tubes described above and then well mixed immediately to avoid generation of bubbles. Timing began at that time and the test tubes were all placed in a thermostatic water bath at 37 ± 0.5 °C. The interval between blood sampling and tube incubation in the thermostatic water bath should not be longer than two minutes. If the plasma was used, then 0.7 mL of plasma was added to each of the test tubes described above and then the test tubes were placed into a thermostatic water bath at 37 ± 0.5 °C to warm up for 5 to 10 minutes. Then, into each test tube, 0.1 mL of 1% calcium chloride solution was added and immediately mixed to avoid generation of bubbles. At that time, timing began. The test tubes were observed and the time until coagulation was recorded.
The clotting time in one control tube should not be more than 1.35 times longer than that in the other control tube. Among test tubes where the clotting time was no longer than 150% of the average coagulating time in two control tubes, the tube with the highest concentration of heparin was used as the endpoint tube.
The test was repeated for five times. The concentration of heparin in the endpoint tube was measured in all five tests, and the deviation was not allowed to be higher than 10 units. The average from five tests was deemed as the number of units of the heparin neutralized by 1 mg of the test sample (dry product) (the amount of neutralized heparin).
The anticoagulant time of heparin, i.e. the clotting time from the addition of the series of protamine-like peptides, were recorded where the clotting time in tubes with plasma but not heparin was considered as the control clotting time. The average value in each coagulation test was calculated, and ratio of the concentration in nmol of the added potamine-like peptide to 1 IU of neutralized heparin was regarded as the anti-heparin index (I) of the protamine-like peptide. Anti-heparin index = concentration of polypeptide/1 unit of heparin (nmol/U). [formula]

For RRRRR [R5, (R)5], the water solubility [1] was “good water solubility”.

In the case of N[C@@H](Cc1c[nH]cn1)C(=O)O [Histidine], the “isoelectric point (pI)” value [2] is given as 7.59.

With RRRRRRRRRRRRRRRRRRRR [R20, (R)20] the water solubility [1] was “good water solubility”.

In the case of N=C(N)NCCC[C@H](NC(=O)[C@H](CCCNC(=N)N)NC(=O)[C@@H](N)CCCNC(=N)N)C(=O)O [R3, (R)3] (H-Arg-Arg-Arg-OH), the water solubility [1] is reported as “good water solubility”.

In the case of NCCCC[C@H](N)C(=O)O [Lysine], the “isoelectric point (pI)” value [2] is listed as 9.74.

In the case of N=C(N)NCCC[C@H](NC(=O)[C@H](CCCNC(=N)N)NC(=O)[C@H](CCCNC(=N)N)NC(=O)[C@H](CCCNC(=N)N)NC(=O)[C@H](CCCNC(=N)N)NC(=O)[C@H](CCCNC(=N)N)NC(=O)[C@@H](N)CCCNC(=N)N)C(=O)O [R7, (R)7], the water solubility [1] is reported as “good water solubility”.

With N=C(N)NCCC[C@H](NC(=O)[C@H](CCCNC(=N)N)NC(=O)[C@H](CCCNC(=N)N)NC(=O)[C@H](CCCNC(=N)N)NC(=O)[C@H](Cc1c[nH]cn1)NC(=O)[C@H](CCCNC(=N)N)NC(=O)[C@H](CCCNC(=N)N)NC(=O)[C@H](CCCNC(=N)N)NC(=O)[C@H](CCCNC(=N)N)NC(=O)[C@H](CCCNC(=N)N)NC(=O)[C@H](CCCNC(=N)N)NC(=O)[C@H](CCCNC(=N)N)NC(=O)[C@H](CCCNC(=N)N)NC(=O)[C@H](CCCNC(=N)N)NC(=O)[C@@H](N)CCCNC(=N)N)C(=O)O [R15-5] the water solubility [1] was “good water solubility”.

In the case of KKKKKKKKKKKKKKK [K15, (K)15], the water solubility [1] is reported as “good water solubility”.

For RRRRRRRRRRRRRHR [R15-2], the “Amount of neutralized heparin (U/mg) Mean ± SD” value (heparin) was 110±1.342 U/mg, the “I (Anti-heparin index)” value (heparin) was 4.66 nmol/U and the “Clotting time” value (heparin) was 13.35 ± 0.56 min. The “Amount of neutralized heparin (U/mg) 1” value (heparin) was 110 U/mg, the “Amount of neutralized heparin (U/mg) 2” value (heparin) was 113 U/mg and the “Amount of neutralized heparin (U/mg) 3” value (heparin) was 110 U/mg. For the same compound, the “Amount of neutralized heparin (U/mg) 4” value (heparin) was 110 U/mg, the “Amount of neutralized heparin (U/mg) 5” value (heparin) was 110 U/mg and the water solubility [1] was “good water solubility”.

In the case of N=C(N)NCCC[C@H](N)C(=O)O [Arginine], the “isoelectric point (pI)” value [2] is listed as 10.76.

For RRRRRRHRRRRRRRR [R15-8], the “Amount of neutralized heparin (U/mg) Mean ± SD” value (heparin) was 108.4±1.32 U/mg, the “I (Anti-heparin index)” value (heparin) was 3.93 nmol/U and the “Clotting time” value (heparin) was 14.35 ± 0.38 min. For the same compound, the “Amount of neutralized heparin (U/mg) 1” value (heparin) was 110 U/mg, the “Amount of neutralized heparin (U/mg) 2” value (heparin) was 105 U/mg and the “Amount of neutralized heparin (U/mg) 3” value (heparin) was 105 U/mg. For the same compound, the “Amount of neutralized heparin (U/mg) 4” value (heparin) was 112 U/mg, the “Amount of neutralized heparin (U/mg) 5” value (heparin) was 110 U/mg and the water solubility [1] was “good water solubility”.
